Experimental data reported in patent publication US20080145412A1, “METHOD OF PROMOTING ANGIOGENESIS” (Acologix, Inc., priority 2006, published 2008).

How the values were obtained:
FGF2 [1] = assay: ELISA timecourse of FGF2 in calvaria organ culture lysates and conditioned media (FIG. 2A); format: cell-based, mouse
Method: (§1) To quantitatively measure the increase in FGF2 in AC-100 treated bones, lysates were harvested over a comprehensive timecourse (30 min, 1 hr, 2 hr, 6 hr, 24 hr, 48 hr, 72 hr, day 4, day 5) and analysed for FGF2 and other bone anabolic factors using ELISA. […] Consistent with our previous findings AC-100 increased PGE2 in the conditioned media and TGFbeta and Fibronectin in both the conditioned media and bone lysate.
(§2) In addition, this response roughly correlated with expression of PGE-2 following AC-100 treatment (2B), TGF-β (2C) and Fibronectin (2D). Increases in PGE2 in the same cultures were observed from […].

FGF-2 = FGF-2 production in mouse calvaria organ cultures (FIG. 1); format: cell-based; conditions: tissue lysates and conditioned media
Method: AC-100 at both 1 and 10 uM concentrations increased the production of FGF-2 in mouse calvaria organ cultures. Increases were found in both tissue lysates and in the conditioned media of cultures treated with AC-100.

Fibronectin = Fibronectin in murine calvarial organ culture (FIG. 2D); format: cell-based, mouse
Method: (§3) We have previously reported AC-100 treatment increases PGE2, TGFbeta and Fibronectin levels in the conditioned media from the murine calvarial organ culture. Histological evaluation of the bones indicated AC-100 increased the amount of new bone formation and numbers of osteoblasts.
as §1, §2

bone healing = assay: Bone healing in diverse animal models; format: in vivo
Text: Angiogenesis is a crucial part of bone healing.

PGE2 = PGE2 in murine calvarial organ culture (FIG. 2B); format: cell-based, mouse
Method: as §3, §1, §2

[2] = test system: murine calvarial organ culture; assay: Histological evaluation of bones from murine calvarial organ culture; format: cell-based, mouse; conditions: histological evaluation of the bones
Text: as §3

BMP2 [3] = assay: Synergy with BMP2 in vivo, ossicle formation
Text: (§4) BMP2, a potent osteogenic agent is also a strong stimulator of angiognenesis.

TGFbeta = TGFbeta in murine calvarial organ culture (FIG. 2C); format: cell-based, mouse
Method: as §3, §1, §2

BMP2 [4] = assay: Synergy with BMP2 in vitro; format: cell-based; conditions: combination with BMP2, in vitro
Text: as §4

FGF2 [5] = assay: Angiogenesis antibody array (TranSignal Mouse Angiogenesis Antibody Array) of lysates from AC-100 treated calvariae; format: cell-based; conditions: calvaria lysates
Text: To investigate whether AC-100 modulates bone anabolic factors that are sequestered within the bone matrix we have analysed lysates from AC-100 treated calvariae.
Initial experiments analysed the lysates using an angiogenesis antibody array (TranSignal Mouse Angiogenesis Antibody Array, Panomics).

[6] = conditioned media, murine calvarial organ culture, previously reported

In the case of TDLQERGDNDISPFSGDGQPFKD [AC-100], the “FGF2 in conditioned media” value (FGF2 [1]; ELISA, conditioned media) was “not detectable”, the “FGF2 in bone lysates” value (FGF2 [1]; ELISA, lysates, 30 min through day 5) was “potent increase” and the “production of FGF-2 over time (FIG. 2A)” value (FGF2 [1]; approximately 1 hr to 5 days) was “increased”. For the same sequence, the “production of FGF-2” value (FGF-2; AC-100 1 uM) was “increased”, the “production of FGF-2” value (FGF-2; AC-100 10 uM) was “increased” and the “Fibronectin in bone lysate” value (Fibronectin; ELISA, bone lysate) was “increased”. For the same sequence, the “Fibronectin in conditioned media” value (Fibronectin; ELISA, conditioned media) was “increased”, the Fibronectin levels (Fibronectin; [6]) was “increases” and the healing (bone healing) was “earlier healing”. The new bone formed (bone healing) was “increased amount and better quality of new bone”, the “PGE2 in conditioned media” value (PGE2; ELISA, conditioned media) was “increased” and the PGE2 levels (PGE2; [6]) was “increases”. The “PGE2 over time (FIG. 2B)” value (PGE2; same cultures, days 2-7) was “Increases”, the “amount of new bone formation” value [2] was “increased” and the numbers of osteoblasts [2] was “increased”. For the same sequence, the “osteons and blood vessels in ossicles” value (BMP2 [3]; BMP2 and AC-100 co-treatment) was “contain mature osteons with new blood vessels”, the “structure of ossicles formed” value (BMP2 [3]; BMP2 and AC-100 co-treatment versus BMP2 alone) was “more mature structure” and the “activity with BMP2 in vivo” value (BMP2 [3]; combination with BMP2, in vivo) was “synergistic activities”. The “TGFbeta in bone lysate” value (TGFbeta; ELISA, bone lysate) was “increased”, the “TGFbeta in conditioned media” value (TGFbeta; ELISA, conditioned media) was “increased” and the TGFbeta levels (TGFbeta; [6]) was “increases”. The “activity with BMP2 in vitro” value (BMP2 [4]) was “synergistic activities”, the “FGF2 signal at 2 hr” value (FGF2 [5]; 2 hr) was “increased” and the “FGF2 signal 24 hr through day 3” value (FGF2 [5]; 24 hr through day 3) was “the same as the control bones”. For the same sequence, the “FGF2 signal at day 5” value (FGF2 [5]; day 5, control signal significantly reduced) was “still strong” and the “FGF2 signal, overall course” value (FGF2 [5]; versus control bones) was “earlier and prolonged increase”.
